Data reported in patent publication US5334761A, “Cationic lipids” (Life Technologies, Inc., priority 1992, dated 1994).
Where a name gives a salt, the structure may show the parent alone.

Test system: PC12 cells
Experiment: CAT transient transfection
Assay type: cell-based, rat
Description: A one-to-one mixture (by weight) of the desired lipid and dioleylphosphatidyl ethanolamine was prepared in CHCl3. The CHCl3 was removed on the rotary evaporator to obtain a thin film of lipid mixture. The mixture was hydrated with enough water to obtain approximately 1.25 mg of lipid per ml of solution. The solution was passed through a microfluidizer twice and diluted to 1 mg/ml. The liposome formulation was then filtered through a 0.2 μ filter. Compound 8 was also formulated without DOPE either by sonication at 1 mg/ml in water or by dissolving a dried lipid film with ethanol and then adding water to give a final concentration of 2.5 mg/ml. Ethanol was 10% of that volume. In some instances, this was further diluted with water to 1 mg/ml, 4% ethanol.
Baby hamster kidney (BHK-21) , COS-7, HeLa-S3 cells, and normal human fibroblasts isolated from newborn foreskin dermis were grown in Dulbecco's-modified Eagle's medium (DMEM) containing 10% fetal bovine serum (FBS), 2 mM L-glutamine (gln), 0.1 mM MEM nonessential amino acids (NEAA), 100 U/ml penicillin, and 100 μg/ml streptomycin. […]
Cell lysates were assayed for CAT activity as described by Neumann et al. (1987) BioTechniques 5:444 using [^14 C]-butyryl coenzyme A (New England Nuclear, Boston, Mass.). […] CAT activity was determined by measuring radioactivity in a liquid scintillation counter. […]

CCCCCCCC/C=C\CCCCCCCCOCC(C[N+](C)(C)CCNC(=O)C(CCCNCCCN)NCCCN)OCCCCCCCC/C=C\CCCCCCCC (centres unmarked) [Compound 8, 1-Propanaminium, N-[2-[[2,5-bis[(3-amino]-1-oxopentyl]amino]ethyl]-n,n-dimethyl-2,3,-bis(9-octadecenyloxy)-, tetra(trifluoroacetate) salt]
CAT ACTIVITY (40 μg lipid, 2 μg pCMVCAT, 6 h DMEM): 28,512 CPM/150 ul | DNA transfection (in words) (PC12): highly effective
